Measurements published in patent publication US20070212355A1 (priority 2005, published 2007).
Blank lines part the entries; values can stand above or below the molecule they belong to.

What was measured:
[1] = Incubation with U937 cell lysate, SDS-PAGE (proteolysis resistance); format: in vitro ADME; conditions: 0, 12, 24 hours; in comparison with A2G GLP-2 mimetibody (SEQ ID NO: 5); FIG. 1
Protocol: The purified Pro substitution variants were incubated with U937 cell lysate in the presence of CompleteMini protease inhibitor tablets (Cat. No. 1 836 153, Roche Applied Science, Indianapolis, Ind.) for 0, 12, or 24 hours. Afterwards, GLP-2 mimetibody variants were purified using Protein A beads and resolved on a SDS-PAGE gel.

mutated human GLP-2R = target: T1, mutated human GLP-2R (Homo sapiens, UniProt O95838, E512D/G511A/L513V); test: cAMP expression assay in HEK 293E clonal cell line expressing mutated human GLP-2R; format: cell-based; conditions: Table 2; mimetibodies with Pro substitution; read-out: EC50
T1 construct: expressed in transfected cells; host or cells: HEK 293E clonal cell line
T1 sequence (O95838 1-553 G511A/E512D/L513V): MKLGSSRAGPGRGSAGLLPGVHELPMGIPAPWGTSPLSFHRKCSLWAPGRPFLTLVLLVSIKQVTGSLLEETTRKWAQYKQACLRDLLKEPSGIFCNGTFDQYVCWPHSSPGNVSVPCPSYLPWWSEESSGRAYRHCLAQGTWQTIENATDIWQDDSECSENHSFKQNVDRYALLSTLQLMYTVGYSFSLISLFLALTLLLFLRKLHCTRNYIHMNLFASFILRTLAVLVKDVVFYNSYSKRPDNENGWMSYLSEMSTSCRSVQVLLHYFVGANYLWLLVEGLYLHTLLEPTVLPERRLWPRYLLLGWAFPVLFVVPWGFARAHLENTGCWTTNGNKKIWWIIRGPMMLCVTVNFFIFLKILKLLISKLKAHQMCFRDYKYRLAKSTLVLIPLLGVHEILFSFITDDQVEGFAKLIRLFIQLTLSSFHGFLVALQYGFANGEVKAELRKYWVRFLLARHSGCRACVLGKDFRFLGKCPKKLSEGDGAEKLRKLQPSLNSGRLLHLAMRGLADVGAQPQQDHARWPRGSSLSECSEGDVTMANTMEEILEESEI
Description: To achieve this goal, a clonal cell line expressing a mutated human GLP-2R was generated by transfecting HEK 293E cells. The mutated human GLP-2R differs from the wild-type human GLP-2R (SEQ ID NO: 35) at three amino acid positions within the C-terminal intracellular region (SEQ ID NO: 36).
The cAMP expression was quantitated using the cAMP Direct Screen System (Cat. No. CSD 200, Applied Biosystems, Bedford, Mass.).
This assay was based on the cAMP Direct Screen System from Applied Biosystems utilizing a cell line expressing mutated huGLP-2R in HEK 293E cells. Peptide at concentrations ranging from 0.01 nM to 1.0 uM in PBS with 0.5% BSA was added to ˜50,000 cells suspended in 96-well plates. After a 30-minute incubation at 37° C., Lysis Buffer followed by luminescence reagents (Applied Biosystems) was added according to the manufacturers' procedures (Applied Biosystems Luminescence protocol: cAMP-Screen Direct System). Luminescence was quantitated using a TopCount liquid scintillation analyzer (PerkinElmer), and data was processed using Softmax software (Molecular Devices Corporation).

[2] = background statement; cited from earlier work
[3] = CD spectra secondary structure of peptides; format: physicochemical; conditions: 0.2 mg/mL in PBS, 25° C.
Protocol: The secondary structures of tested peptides were determined using 0.2 mg/mL peptide solutions in PBS. Briefly, CD spectra were collected in triplicate at 1 nm intervals at 25° C. in 0.1 cm path length cell. Secondary structures were determined by fitting of the CD spectra using CD spectra software (CD Spectra Deconvolution software 2.1). All tested peptides contained peaks corresponding to the presence of alpha helices.

[4] = SEC-SLS self-association of peptides in PBS (pH 7.5); format: physicochemical; conditions: 1 mg/ml
Protocol: The self-association poses a challenge to the development and manufacturing of a homogeneous therapeutic.
(§1) Solution molecular weight of the peptides was measured by SEC-SLS. Briefly, peptide solutions in PBS (pH 7.5) at 0.4 to 2.0 mg/mL were fractionated over a Superdex peptide column (Amersham Pharmacia). The eluted peaks were monitored by static light scattering at 690 nm and solution molecular weight was determined at UV 280 nm using the Astra software package (Wyatt Inc.).

mice = test: Upper gastrointestinal transit, carmine dye technique, normal mice; format: in vivo; conditions: 50 μg/mouse daily s.c. 10 days, 20-minute test period, vs PBS vehicle, FIG. 3
Protocol: To test the effects of A2G-GLP-2 on upper gastrointestinal transit in normal mice, mice were randomly assigned to 2 groups (14 animals per test group). Each group received daily subcutaneous injection (total volume […]) of either A2G-GLP-2 peptide (50 μg/mouse) or the phosphate-buffered saline vehicle for 10 consecutive days.
On the day of study, upper gastrointestinal transit was measured using the carmine dye technique. Mice were fed a test meal of 0.25 ml of a 6% (w/v) solution of carmine cochineal powder mixed into 0.5% (w/v) methylcellulose administered intragastrically by an 18 gauge curved feeding tube. Following oral test meal administration, mice were replaced into their home cages. Twenty minutes after marker meal administration, mice were rapidly euthanized by cervical dislocation and the entire gastrointestinal tract was excised starting from the distal colon and working towards the gastric pylorus. […] The linear distance traversed by the carmine dye front through the small intestine was measured together with the total length of the small bowel. Upper gastrointestinal transit was expressed as the percentage of the entire small intestine traversed by the carmine dye front during the 20-minute test period: % small intestine traveled =[distance traversed by dye front through small intestine (cm)/entire small intestine length (cm)×100].

CD1 mice = test: Mucosal wet weight of small intestine after 10 daily subcutaneous injections; format: in vivo; conditions: 2.5 mg/kg (13.3 nmole) daily s.c. 10 days; p<0.0001
Description: Afterwards, the mice were euthanized and the small intestines were removed, flushed with saline, and processed as described below.
Specifically, 4 cm sections were harvested: (1) immediately distal to the pylorus (duodenum), (2) starting 2 cm distal of the ligament of Treitz (jejunum), and (3) immediately proximal to the cecum (ileum). The remaining small intestine from ˜6 cm distal of the ligament of Treitz to 4 cm proximal to the cecum was used to prepare mucosal scrapings. From the proximal and distal ends of the remnant, an equal distance was removed until a 15 cm section remained, the remnant was cut longitudinally, rinsed, and the mucosal layer was removed using the short end of a glass microscope slide. The wet weight of the intact intestinal segments and mucosa was measured.

[5] = Helical propensity analysis using TFE (CD at 222 nm); format: physicochemical; conditions: 0.2 mg/mL in PBS (pH 7.5), MRE at 222 nm
Protocol: In addition, trifluoroethanol (TFE) is known to induce helix formation in peptides (Soennichsen et al., Biochemistry 31: 8791 (1992)). Accordingly, helical propensity analysis using TFE was performed. Briefly, tested peptides were diluted to 0.2 mg/mL in PBS (pH 7.5) containing 0, 1, 5, 15, 33 or 50% TFE. CD spectra were collected and CD plots were generated after data averaging, buffer subtraction and curve smoothing. Helical propensity values were obtained from mean residue ellipticity (MRE) at 222 nm versus % TFE plots. The concentration of TFE that effected a 50% transformation of the CD spectrum at 222 nm was used as a measure of helical propensity.

[6] = SEC-SLS analysis of mimetibodies (monomer/dimer); format: physicochemical; conditions: purified from HEK 293E/HEK 293 expression
[7] = target: the molecule itself; test: SEC-SLS, self-association at 1 mg/ml in PBS pH 7.5
Protocol: as §1

Molecule: SEQ ID NO: 44: GLP-2 mimetibody Pro substitution variant; core HGDGSFSDEMNTILDNLAARDFINWLIQTKITDGSGGGSGALVAVSPESKYGPPCPPCP (Mimetibody)
degradation after incubation with U937 cell lysate [1]: less degradation | EC50 (mutated human GLP-2R): 7.7 nM

Molecule: CC[C@H](C)[C@H](NC(=O)[C@H](Cc1ccccc1)NC(=O)[C@H](CC(=O)O)NC(=O)[C@H](CCCNC(=N)N)NC(=O)[C@H](C)NC(=O)[C@H](C)NC(=O)[C@H](CC(C)C)NC(=O)[C@H](CC(N)=O)NC(=O)[C@H](CC(=O)O)NC(=O)[C@H](CC(C)C)NC(=O)[C@@H](NC(=O)[C@@H](NC(=O)[C@H](CC(N)=O)NC(=O)[C@H](CCSC)NC(=O)[C@H](CCC(=O)O)NC(=O)[C@H](CC(=O)O)NC(=O)[C@H](CO)NC(=O)[C@H](Cc1ccccc1)NC(=O)[C@H](CO)NC(=O)CNC(=O)[C@H](CC(=O)O)NC(=O)CNC(=O)[C@@H](N)Cc1c[nH]cn1)[C@@H](C)O)[C@@H](C)CC)C(=O)N[C@@H](CC(N)=O)C(=O)N[C@@H](Cc1c[nH]c2ccccc12)C(=O)N[C@@H](CC(C)C)C(=O)N[C@H](C(=O)N[C@@H](CCC(N)=O)C(=O)N[C@H](C(=O)N[C@@H](CCCCN)C(=O)N[C@H](C(=O)N[C@H](C(=O)N[C@@H](CC(=O)O)C(=O)O)[C@@H](C)O)[C@@H](C)CC)[C@@H](C)O)[C@@H](C)CC [teduglutide]
half-life [2]: less than 30 minutes

B1: SEQ ID NO: 4: A2S GLP-2 mimetibody, IgG4 Hg-CH2-CH3 with S228P and P234A/L235A (protein)
chain: HSDGSFSDEMNTILDNLAARDFINWLIQTKITDGSGGGSGTLVTVSSESKYGPPCPPCPAPEAAGGPSVFLFPPKPDTLMISRTPEVTCVVVDVSQEDPEVQFNWYVDGVEVHNAKTKPREEQFNSTYRVVSVLTVLHQDWLNGKEYKCKVSNKGLPSSIEKTISKAKGQPREPQVYTLPPSQEEMTKNQVSLTCLVKGFYPSDIAVEWESNGQPENNYKTTPPVLDSDGSFFLYSRLTVDKSRWQEGNVFSCSVMHEALHNHYTQKSLSLSLGK
modifications: Mimetibody
SEC-SLS association state of mimetibody [6]: dimer

B2: A2G GLP-2 peptide (peptide)
peptide: HGDGSFSDEMNTILDNLAARDFINWLIQTKITD
notes: Analog of human GLP-2 with Ala2 changed to Gly; also called A2G peptide; GLP-2(A2G)
binding result [7]: binds

Further lines, with some results ahead:

EC50 (mutated human GLP-2R): 4.8 nM
Molecule: SEQ ID NO: 43: GLP-2 mimetibody Pro substitution variant; core HGDGSFSDEMNTILDNLAARDFINWLIQTKITDGSGGGSGALVAVPSESKYGPPCPPCP (Mimetibody)
degradation after incubation with U937 cell lysate [1]: less degradation

Helix (percentage of helical structure) [3]: 20.7% | Random coil (percentage) [3]: 37.1% | SEC-SLS elution / self-association state [4]: overlapping dimer and monomer peaks | TFE required for helical transformation (helical propensity) [5]: ~16 % TFE
Molecule: CC[C@H](C)[C@H](NC(=O)[C@H](Cc1ccccc1)NC(=O)[C@H](CC(=O)O)NC(=O)[C@H](CCCNC(=N)N)NC(=O)[C@H](C)NC(=O)[C@H](C)NC(=O)[C@H](CC(C)C)NC(=O)[C@H](CC(N)=O)NC(=O)[C@H](CC(=O)O)NC(=O)[C@H](CC(C)C)NC(=O)[C@@H](NC(=O)[C@@H](NC(=O)[C@H](CC(N)=O)NC(=O)[C@H](CCSC)NC(=O)[C@H](CCC(=O)O)NC(=O)[C@H](CC(=O)O)NC(=O)[C@H](CO)NC(=O)[C@H](Cc1ccccc1)NC(=O)[C@H](CO)NC(=O)CNC(=O)[C@H](CC(=O)O)NC(=O)CNC(=O)[C@@H](N)Cc1c[nH]cn1)[C@@H](C)O)[C@@H](C)CC)C(=O)N[C@@H](CC(N)=O)C(=O)N[C@@H](Cc1c[nH]c2ccccc12)C(=O)N[C@@H](CC(C)C)C(=O)N[C@H](C(=O)N[C@@H](CCC(N)=O)C(=O)N[C@H](C(=O)N[C@@H](CCCCN)C(=O)N[C@H](C(=O)N[C@H](C(=O)N[C@@H](CC(=O)O)C(=O)O)[C@@H](C)O)[C@@H](C)CC)[C@@H](C)O)[C@@H](C)CC [SEQ ID NO: 3]
upper gastrointestinal transit (% small intestine traveled by carmine dye front) (mice; listed as A2G-GLP-2): acceleration of upper gastrointestinal transit | upper gastrointestinal transit (% small intestine traveled by carmine dye front) (mice; listed as A2G-GLP-2 peptide): significant acceleration of intestinal transit | increase in mucosal wet weight (CD1 mice): statistically significant increase
